Seven molecules from patent US7435721B2, “Transport peptides such as C-terminal Erns peptide and analogues thereof” (Pepscan Systems B.V., priority 2000, dated 2008) can be followed below.

Values after ≈ are worked out from the molar mass of the structure shown. Residues, ends and D or L forms follow the SMILES beside them. *: point of attachment. Biotin = O=C1N[C@H]2[C@H](CS[C@H]2CCCCC(=O)*)N1

For assay [1], the system named is Escherichia coli ATCC 25922. As to the kind of experiment: Antimicrobial assay (MIC), E. coli. It is filed as cell-based. As to conditions: overnight at 37° C. The protocol: Antimicrobial assay. Two bacterial strains (Escherichia coli ATCC 25922 and Enterococcus faecalis ATCC 29212) were inoculated on heart infusion agar with 5% sheep blood and incubated aerobically overnight at 37° C. From the pure cultures, suspensions were made in saline to a density of 0.5 McFarland. These suspensions were diluted ten-fold in Mueller Hinton II broth, resulting in a final inoculum of approximately 10^7 cfu/ml.
Standard 96-well microtiter trays were filled with 100 ill of two-fold dilutions of peptide in physiologic salt solution in each well, resulting in the following concentration range: 4000, 2000, 1000, 500, 250, 125, 62.25, 31.63, 15.82, 7.96 and 0 μg/ml. The trays in column 12 were filled with 200 μl MH II broth (negative control).
Columns 1-11 of the microtiter trays were filled with 100 μl of the final inoculum of the bacterial suspensions, thus diluting the concentrations of the peptide two fold, resulting in the following peptide concentration range in the wells: 2000, 1000, 500, 250, 125, 62.25, 31.63, 15.82, 7.96, 3.98 and 0 μg/ml. In rows B, C and D, 100 μl of the final inoculum of E. coli and, in rows E, F and G, 100 μl of the final inoculum of E. faecalis was pipetted. The final bacterial concentration was approximately 5×10^5 cfu/well. All trays were sealed and incubated overnight at 37° C. After incubation, the microtiter trays were inspected visually for bacterial growth and the absorbance of the cultures at 630 nm (A630) was determined with an ELISA-reader. […] The experiment was performed independently in triplicate. The test was repeated again in triplicate after two days with the final peptide concentration range in the wells: 5000, 2500, 1250, 625, 312.5, 156.25, 78.12, 39.06, 19.58, 9.79, 4.88, 2.44 and 1.22 μg/ml.

The test system of assay [2] is guinea pig erythrocytes. As to the kind of experiment: Hemolytic assay, guinea pig erythrocytes. It is filed as cell-based. As to conditions: 1% v/v, one hour at 37° C. The protocol:
Hemolytic assay. Hemolytic activity of various peptide concentrations was determined by incubation with human, guinea pig or sheep erythrocyte suspensions (final erythrocyte concentration, 1% v/v) for one hour at 37° C. After cooling and centrifugation, the optical density of the supernatants were measured at 540 nm. Peptide concentrations causing 50% hemolysis (EC50) were derived from the dose-response curves.

As for `CC[C@H](C)[C@H](NC(=O)[C@H](CCCNC(=N)N)NC(=O)[C@H](CC(C)C)NC(=O)[C@H](CCC(N)=O)NC(=O)[C@H](CCCNC(=N)N)NC(=O)CNC(=O)[C@H](CC(C)C)NC(=O)[C@H](Cc1c[nH]c2ccccc12)NC(=O)[C@H](CO)NC(=O)[C@@H](NC(=O)[C@@H](NC(=O)[C@H](CCCNC(=N)N)NC(=O)[C@H](C)NC(=O)[C@H](C)NC(=O)CNC(=O)[C@H](CCC(N)=O)NC(=O)[C@H](CCCNC(=N)N)NC(=O)[C@H](C)NC(=O)[C@H](CC(N)=O)NC(=O)[C@H](CCC(=O)O)NC(=O)CCCC[C@@H]1SC[C@@H]2NC(=O)N[C@@H]21)C(C)C)[C@@H](C)O)C(=O)N[C@@H](C)C(=O)NCC(=O)N[C@@H](CCCCN)C(=O)N[C@@H](CCCNC(=N)N)C(=O)N[C@@H](CC(C)C)C(=O)N[C@@H](CCC(=O)O)C(=O)NCC(=O)N[C@@H](CCCNC(=N)N)C(=O)N[C@@H](CO)C(=O)N[C@@H](CCCCN)C(N)=O` [191-220], the “MIC (minimal inhibitory concentration needed to inhibit bacterial growth)” value in assay [1] amounted to 47 µg/mL (≈ 13.1 µM). In addition, in assay [2], the “Hemolysis (peptide concentration causing 50% hemolysis)” value was found to be 0.31 mg/mL.

Take `CC[C@H](C)[C@H](NC(=O)[C@H](CCCNC(=N)N)NC(=O)[C@H](CC(C)C)NC(=O)[C@H](CCC(N)=O)NC(=O)[C@H](CCCNC(=N)N)NC(=O)CNC(=O)[C@H](CC(C)C)NC(=O)[C@H](Cc1c[nH]c2ccccc12)NC(=O)[C@H](CO)NC(=O)[C@@H](NC(=O)[C@@H](NC(=O)[C@H](CCCNC(=N)N)NC(=O)[C@H](C)NC(=O)[C@H](C)NC(=O)CNC(=O)CCCC[C@@H]1SC[C@@H]2NC(=O)N[C@@H]21)C(C)C)[C@@H](C)O)C(=O)N[C@@H](C)C(=O)NCC(=O)N[C@@H](CCCCN)C(=O)N[C@@H](CCCNC(=N)N)C(=O)N[C@@H](CC(C)C)C(=O)N[C@@H](CCC(=O)O)C(=O)NCC(=O)N[C@@H](CCCNC(=N)N)C(=O)N[C@@H](CO)C(=O)N[C@@H](CCCCN)C(N)=O` [196-220]: the “MIC (minimal inhibitory concentration needed to inhibit bacterial growth)” value in assay [1] is 25 µg/mL (≈ 8.35 µM). For the same molecule, in assay [2], the “Hemolysis (peptide concentration causing 50% hemolysis)” value stood at 0.16 mg/mL.

Regarding `CC(C)C[C@H](NC(=O)[C@H](CCC(N)=O)NC(=O)[C@H](CCCCN)NC(=O)CNC(=O)[C@H](CC(C)C)NC(=O)[C@H](Cc1c[nH]c2ccccc12)NC(=O)[C@@H](NC(=O)[C@@H](NC(=O)[C@H](CC(C)C)NC(=O)[C@H](CCCCN)NC(=O)[C@H](C)NC(=O)[C@@H](NC(=O)CNC(=O)[C@H](CCC(N)=O)NC(=O)[C@H](CCCNC(=N)N)NC(=O)[C@H](C)NC(=O)CNC(=O)[C@H](CCC(=O)O)NC(=O)CCCC[C@@H]1SC[C@@H]2NC(=O)N[C@@H]21)[C@@H](C)O)[C@@H](C)O)[C@@H](C)O)C(=O)NCC(=O)N[C@H](C(=O)N[C@@H](C)C(=O)NCC(=O)N[C@@H](CCCCN)C(=O)N[C@@H](CCCCN)C(=O)N[C@@H](CC(C)C)C(=O)N[C@@H](CCC(=O)O)C(=O)N[C@@H](CC(N)=O)C(=O)N[C@@H](CCCCN)C(=O)N[C@@H](CO)C(=O)N[C@@H](CCCCN)C(=O)N[C@H](C(=O)N[C@@H](Cc1c[nH]c2ccccc12)C(=O)N[C@@H](Cc1ccccc1)C(=O)NCC(=O)N[C@@H](C)C(=O)N[C@@H](Cc1ccc(O)cc1)C(=O)N[C@@H](C)C(N)=O)[C@@H](C)O)[C@@H](C)O` [194-230] (Biotin-EGARQGTAKLTTWLGKQLGTAGKKLENKSKTWFGAYA-NH2), the “MIC (minimal inhibitory concentration needed to inhibit bacterial growth)” value in assay [1] amounted to 93 µg/mL (≈ 22 µM). The “Hemolysis (peptide concentration causing 50% hemolysis)” value in assay [2] is 0.25 mg/mL.

Consider `CC[C@H](C)[C@H](NC(=O)[C@H](CCCNC(=N)N)NC(=O)[C@H](CC(C)C)NC(=O)[C@H](CCC(N)=O)NC(=O)[C@H](CCCNC(=N)N)NC(=O)CNC(=O)[C@H](CC(C)C)NC(=O)[C@H](Cc1c[nH]c2ccccc12)NC(=O)[C@H](CO)NC(=O)[C@@H](NC(=O)[C@@H](NC(=O)[C@H](CCCNC(=N)N)NC(=O)[C@H](C)NC(=O)[C@H](C)NC(=O)CNC(=O)[C@H](CCC(N)=O)NC(=O)[C@H](CCCNC(=N)N)NC(=O)[C@H](C)NC(=O)[C@H](CC(N)=O)NC(=O)[C@H](CCC(=O)O)NC(=O)[C@@H](NC(=O)[C@@H](NC(=O)[C@H](CC(N)=O)NC(=O)[C@@H](NC(=O)[C@H](CCSC)NC(=O)CNC(=O)[C@H](CC(=O)O)NC(=O)[C@H](CC(C)C)NC(=O)[C@H](CC(C)C)NC(=O)[C@H](Cc1ccc(O)cc1)NC(=O)[C@H](CC(C)C)NC(=O)[C@H](C)NC(=O)[C@@H](NC(=O)[C@H](CC(=O)O)NC(=O)CCCC[C@@H]1SC[C@@H]2NC(=O)N[C@@H]21)[C@@H](C)O)[C@@H](C)O)[C@@H](C)O)[C@@H](C)CC)C(C)C)[C@@H](C)O)C(=O)N[C@@H](C)C(=O)NCC(=O)N[C@@H](CCCCN)C(=O)N[C@@H](CCCNC(=N)N)C(=O)N[C@@H](CC(C)C)C(=O)N[C@@H](CCC(=O)O)C(N)=O` [177-216], for which the “MIC (minimal inhibitory concentration needed to inhibit bacterial growth)” value in assay [1] is 224 µg/mL (≈ 47.8 µM). Also, in assay [2], the “Hemolysis (peptide concentration causing 50% hemolysis)” value turned out to be 0.23 mg/mL.

As for `CC[C@H](C)[C@H](NC(=O)[C@H](CCCNC(=N)N)NC(=O)[C@H](CC(C)C)NC(=O)[C@H](CCC(N)=O)NC(=O)[C@H](CCCNC(=N)N)NC(=O)CNC(=O)[C@H](CC(C)C)NC(=O)[C@H](Cc1c[nH]c2ccccc12)NC(=O)[C@H](CO)NC(=O)[C@@H](NC(=O)[C@@H](NC(=O)[C@H](CCCNC(=N)N)NC(=O)CCCC[C@@H]1SC[C@@H]2NC(=O)N[C@@H]21)C(C)C)[C@@H](C)O)C(=O)N[C@@H](C)C(=O)NCC(=O)N[C@@H](CCCCN)C(=O)N[C@@H](CCCNC(=N)N)C(=O)N[C@@H](CC(C)C)C(=O)N[C@@H](CCC(=O)O)C(=O)NCC(=O)N[C@@H](CCCNC(=N)N)C(=O)N[C@@H](CO)C(=O)N[C@@H](CCCCN)C(N)=O` [199-220], the “MIC (minimal inhibitory concentration needed to inhibit bacterial growth)” value in assay [1] was found to be 23 µg/mL (≈ 8.23 µM). For the same molecule, in assay [2], the “Hemolysis (peptide concentration causing 50% hemolysis)” value came out at 0.18 mg/mL.

For the molecule `CC[C@H](C)[C@H](NC(=O)[C@H](CCCNC(=N)N)NC(=O)[C@H](CC(C)C)NC(=O)[C@H](CCC(N)=O)NC(=O)[C@H](CCCNC(=N)N)NC(=O)CNC(=O)[C@H](CC(C)C)NC(=O)[C@H](Cc1c[nH]c2ccccc12)NC(=O)[C@H](CO)NC(=O)[C@@H](NC(=O)[C@@H](NC(=O)[C@H](CCCNC(=N)N)NC(=O)[C@H](C)NC(=O)[C@H](C)NC(=O)CNC(=O)[C@H](CCC(N)=O)NC(=O)[C@H](CCCNC(=N)N)NC(=O)[C@H](C)NC(=O)[C@H](CC(N)=O)NC(=O)[C@H](CCC(=O)O)NC(=O)CCCC[C@@H]1SC[C@@H]2NC(=O)N[C@@H]21)C(C)C)[C@@H](C)O)C(=O)N[C@@H](C)C(N)=O` [191-211], the “MIC (minimal inhibitory concentration needed to inhibit bacterial growth)” value in assay [1] was 395 µg/mL (≈ 153 µM). The “Hemolysis (peptide concentration causing 50% hemolysis)” value in assay [2] was over 0.33 mg/mL.

Consider `CC[C@H](C)[C@H](NC(=O)[C@H](CCCNC(=N)N)NC(=O)[C@H](CC(C)C)NC(=O)[C@H](CCC(N)=O)NC(=O)[C@H](CCCNC(=N)N)NC(=O)CNC(=O)[C@H](CC(C)C)NC(=O)[C@H](Cc1c[nH]c2ccccc12)NC(=O)[C@H](CO)NC(=O)CCCC[C@@H]1SC[C@@H]2NC(=O)N[C@@H]21)C(=O)N[C@@H](C)C(=O)NCC(=O)N[C@@H](CCCCN)C(=O)N[C@@H](CCCNC(=N)N)C(=O)N[C@@H](CC(C)C)C(=O)N[C@@H](CCC(=O)O)C(=O)NCC(=O)N[C@@H](CCCNC(=N)N)C(=O)N[C@@H](CO)C(=O)N[C@@H](CCCCN)C(N)=O` [202-220], for which the “MIC (minimal inhibitory concentration needed to inhibit bacterial growth)” value in assay [1] was 179 µg/mL (≈ 73.5 µM). Also, the “Hemolysis (peptide concentration causing 50% hemolysis)” value in assay [2] is over 0.33 mg/mL.
